Holding throughout (assay type): in vivo, rat
In assay [1] the test system is adult male Wistar rats, four-vessel occlusion (4VO) transient forebrain ischemia. Nature of the assay: Neurological deficit score (NDS) after global cerebral ischemia (4VO). To be noted: 40 mg/kg i.v.; R5d; times tested 0, 1, 3, 6 h. The protocol: Transient forebrain ischemia was induced in adult male Wistar rats (10–12 weeks, Charles River, L’Arbresle, France) by the standard four-vessel occlusion (4VO) model previously described. Briefly, animals were anesthetized by intraperitoneal injection of a combination of ketamine, diazepam, and atropine (62.5, 5.0, and 0.25 mg/kg, respectively); positioned in a stereotactic device; and both vertebral arteries were cauterized. The next day, anesthesia was induced with 4% isoflurane and maintained at 2–2.5% isoflurane for carotid artery dissection. After anesthesia withdrawal, the carotid arteries were occluded with an atraumatic vascular clamp to induce brain ischemia. During the entire surgical procedure, temperature was monitored at 2 min intervals and kept at 37 °C. After 15 min of ischemia, the carotid arteries were unclamped for brain reperfusion. The animals were studied after 5 days of reperfusion (R5d), or after 11 weeks of reperfusion (long-term studies), and then they were euthanized under deep anesthesia. Animals from the sham control group were handled in the same way, but without occlusion of the carotid arteries. Ischemic animals were treated with vehicle solution (ethanol/polyethylene glycol 400/saline, 1:300:200 v/v), or with nitrones QN23 or NXY-059 in vehicle solution, as a single injection through the tail vein at the onset of reperfusion. For the therapeutic window experiments, the animals were also treated at reperfusion times 1, 3, and 6 h after ischemia. The treatments were prepared by an independent researcher and administered with concealed allocation. Treatments were administered in a randomized order obtained by a computer-based randomization program. […]
After 5 days of post-ischemic reperfusion (R5d), neurological deficits were evaluated in the animals by a researcher blind to the treatment allocation. General status and mobility impairments were quantified according to a scale previously validated in an entire cohort of R5d animals (n = 20). […]

Assay [2] shares this test system. In words: Neuronal apoptosis by TUNEL assay after transient global cerebral ischemia (4VO). To be noted: 40 mg/kg i.v. at 0, 1, 3 or 6 h of reperfusion; R5d. Here is the method:
(§1) Transient forebrain ischemia was induced in adult male Wistar rats (10–12 weeks, Charles River, L’Arbresle, France) by the standard four-vessel occlusion (4VO) model previously described. Briefly, animals were anesthetized by intraperitoneal injection of a combination of ketamine, diazepam, and atropine (62.5, 5.0, and 0.25 mg/kg, respectively); positioned in a stereotactic device; and both vertebral arteries were cauterized. The next day, anesthesia was induced with 4% isoflurane and maintained at 2–2.5% isoflurane for carotid artery dissection. After anesthesia withdrawal, the carotid arteries were occluded with an atraumatic vascular clamp to induce brain ischemia. During the entire surgical procedure, temperature was monitored at 2 min intervals and kept at 37 °C. After 15 min of ischemia, the carotid arteries were unclamped for brain reperfusion. The animals were studied after 5 days of reperfusion (R5d), or after 11 weeks of reperfusion (long-term studies), and then they were euthanized under deep anesthesia. Animals from the sham control group were handled in the same way, but without occlusion of the carotid arteries. Ischemic animals were treated with vehicle solution (ethanol/polyethylene glycol 400/saline, 1:300:200 v/v), or with nitrones QN23 or NXY-059 in vehicle solution, as a single injection through the tail vein at the onset of reperfusion. For the therapeutic window experiments, the animals were also treated at reperfusion times 1, 3, and 6 h after ischemia. The treatments were prepared by an independent researcher and administered with concealed allocation. Treatments were administered in a randomized order obtained by a computer-based randomization program. To determine the sample size, a power analysis (http://www.biomath.info/power/ttest.htm, accessed on 12 March 2020) with significance level set at 0.05 and statistical power set at 0.8 (80%) rendered a sample size of <6 subjects per group. A total of 120 ischemic animals (30 animals treated with vehicle, 60 treated with QN23, and 30 treated with NXY-059) and 9 sham control animals were included in these studies. Additionally, 13 animals were excluded from the study: 6 animals were not ischemic and 7 animals died within the 24 h after the surgical procedure (5 vehicles, 1 QN23-treated at 1.0 mg/kg, and 1 QN23-treated at 2.0 mg/kg). The Animal Care Ethics Committee of the Hospital Universitario Ramón y Cajal (Madrid, Spain) authorized all the procedures involving the animal experimentation reported here (authorization number 04/2020). These experiments were performed according to ARRIVE guidelines and the legislation on the protection of animals used for scientific purposes in Spain (RD 53/2013) and the EU (Directive 2010/63/EU). The study was designed and conducted according to the STAIR guidelines regarding physiological monitoring, sample randomization, predefined exclusion criteria, allocation concealment, blinded assessment of outcomes, dose–response definition, and a conflict-of-interest statement.
(§2) After 5 days of reperfusion (R5d), or at 11 weeks of reperfusion in long-term studies, animals were euthanized by transcardiac perfusion via the left ventricle under deep anesthesia. First, blood was washed out with 200 mL of ice-cold saline medium, followed by fixation with 4% (w/v) paraformaldehyde solution in PBS for brain preservation. Then, the brains were carefully removed from the cranial cavity and placed in 4% (w/v) paraformaldehyde solution in PBS overnight at 4 °C. The next day, the brains were sequentially placed in 10%, 20%, and 30% (w/v) sucrose in PBS until sunken, and finally embedded in Tissue-Tek O.C.T. (Sakura Finetek, Torrance, CA, USA) before freezing at −80 °C. Brain coronal sections containing the hippocampus region were obtained by cryostat sectioning at the level of interaural line +5.7 ± 0.2 mm on Real Capillary Gap microscope slides (Agilent Dako, Santa Clara, CA, USA). […]

For assay [3] the test system is unchanged. In words: Long-term behavioral tests in the Y maze. To be noted: 40 mg/kg i.v. at reperfusion onset, 11 weeks after ischemia. The protocol:
Long-term assessment of neurological damage after the ischemic episode was performed by the evaluation of the spontaneous exploratory activity (spatial recognition) and spatial memory skills in the Y maze.
For the assessment of the exploratory activity and spatial recognition, control animals and ischemic animals treated with vehicle, QN23, or NXY-059 were placed in the center of the maze and allowed free exploration for 8 min. An independent researcher blind to the treatment allocation registered the total number of arms that the animal entered indistinctly (arm entries), and the times that the animal explored the three different arms of the maze consecutively (alternations or triads).
For the assessment of spatial memory, experiments consisted of two trials. For the first trial (training), control and ischemic animals treated with vehicle or QN23 were placed into one of the arms (start arm) and allowed to explore the Y maze for 10 min with one of the arms closed. One hour after the training trial, the animals were returned to the Y maze and the second trial was conducted. The animals were placed in the same start arm as in the training trial, but now with the remaining two arms of the maze available for exploration for 3 min. A researcher blind to the treatment allocation registered the first choice of arm for entry (novel or old).

The test system is the same in assay [4]. Nature of the assay: Neuronal death by Fluoro-Jade B staining after transient global cerebral ischemia (4VO). The following applies: 40 mg/kg i.v. at 0, 1, 3 or 6 h of reperfusion; R5d. The protocol: as §1, §2

With `CC(C)(C)[N+]([O-])=Cc1ccc(S(=O)(=O)[O-])cc1S(=O)(=O)[O-].[Na+].[Na+]` [NXY-059, reference compound], the “Therapeutic window: administration time after reperfusion onset with significantly reduced NDS” value in assay [1] is reported as 0 h. In addition, the “Apoptosis reduction compared with vehicle” value in assay [2] is given as “did not produce a significant effect”. The “Y maze arm entries (exploratory activity)” value in assay [3] was “fewer arm maze entries”. Moreover, in assay [3] (vehicle 5.0, control 15.75), the “Y maze alternations (triads completed), spatial recognition” value worked out at 5.5. For the same molecule, the “Percentage of animals exploring the novel arm as a first choice (spatial memory)” value in assay [3] (vehicle 17%, control 75%) was 50%. In addition, the “Neuronal death compared with vehicle” value in assay [4] is on record as “did not reduce neuronal death”.

These data come from PMC9220178, “Preclinical Characterization of Antioxidant Quinolyl Nitrone QN23 as a New Candidate for the Treatment of Ischemic Stroke” (Antioxidants, 2022).
